# Legend:
# [1] = tested on: HIV (non-glp); test: Antimicrobial efficacy of HOCl skin cleanser (Table 1); format: cell-based; conditions: 0.01% HOCl; 30 seconds
# [2] = tested on: Klebsiella oxytoca; test: as above; format: cell-based; conditions: 0.01% HOCl; 30 seconds
# [3] = Fournier's gangrene patient case; format: in vivo, human; conditions: HOCl (0.046%) aqueous solution; one patient; four step surgical process; 24 hours period
# Description: A HOCl (0.046%) aqueous solution was preformed in a four step surgical process to a patient that was infected with Fournier's gangrene. Skin was removed from the infected area before administering the HOCl solution on the infected areas in a 24 hours period. Following application, skin graphs were placed over the surgical wound for rehabilitation process.
# [4] = tested on: Candida albicans; test: Antimicrobial efficacy of HOCl skin cleanser (Table 1); format: cell-based; conditions: 0.01% HOCl; 30 seconds
# [5] = tested on: K. pneumoniae; test: Efficacy at 30 seconds (Table 2); format: cell-based; conditions: 0.01 to 0.05% aqueous solution
# [6] = Non-randomized study of skin ulcers, 822 patients; format: in vivo, human; conditions: 0.046% HOCl aqueous solution
# Description: A non-randomized, non-placebo controlled study involving 822 patients with a variety of ulcers was conducted. These patients were treated with HOCl aqueous solution (0.046%) as the only therapeutic intervention and followed the patients for six months to evaluate ulcer closure as a marker of therapeutic success.
# [7] = tested on: E. coli Carbapenem Resistant; test: Efficacy at 30 seconds (Table 2); format: cell-based; conditions: 0.01 to 0.05% aqueous solution
# [8] = tested on: Staphylococcus aureus; test: Antimicrobial efficacy of HOCl skin cleanser (Table 1); format: cell-based; conditions: 0.01% HOCl; 30 seconds
# [9] = tested on: Herpes Simplex; test: Efficacy at 30 seconds (Table 2); format: cell-based; conditions: 0.01 to 0.05% aqueous solution
# [10] = tested on: Trichophyton mentagrophytes; test: Efficacy at 30 seconds (Table 2); format: cell-based; conditions: 0.01 to 0.05% aqueous solution
# [11] = tested on: Human Papillomavirus; test: Efficacy at 30 seconds (Table 2); format: cell-based; conditions: 0.01 to 0.05% aqueous solution
# [12] = tested on: VRE; test: Efficacy at 30 seconds (Table 2); format: cell-based, vancomycin-resistant enterococci; conditions: 0.01 to 0.05% aqueous solution
# [13] = tested on: E. coli; test: Efficacy at 30 seconds (Table 2); conditions: 0.01 to 0.05% aqueous solution
# [14] = tested on: Enterococcus. faecium; test: Antimicrobial efficacy of HOCl skin cleanser (Table 1); format: cell-based; conditions: 0.01% HOCl; 30 seconds
# [15] = tested on: S. aureus Linezolid Resistant; test: Efficacy at 30 seconds (Table 2); format: cell-based; conditions: 0.01 to 0.05% aqueous solution
# [16] = Biocompatibility and animal testing, overall; format: in vivo; conditions: 0.05% hypochlorous acid solution
# From the text: The extensive biocompatibility and animal testing that have been performed supports the safety and efficacy of the 0.05% hypochlorous acid solution. […] Due to the safety of the solution, the hypochlorous acid solution can be used repeatedly without altering or changing the properties of the skin and mucous membranes.
# [17] = Biocompatibility in treated patients; format: in vivo, human; conditions: 0.05% HOCl aqueous solution; over 20,000 patients treated
# From the text: The 0.05% HOCl concentration aqueous solution is biocompatible and found to have a high safety profile. Over 20,000 patients have been treated with the solution with zero reported cases of hypersensitivity. The solution is pH controlled for biocompatibility, formulated for use on sensitive mucous membrane areas of the body, is non-antibiotic, non-irritating, non-allergenic, non-invasive, and non-toxic. No adverse effects against cellular growth in the patient.
# [18] = Absorption through intact skin; format: in vitro ADME; conditions: low concentrations of hypochlorous acid
# From the text: Thus, the potential for producing skin reactions is extremely low.
# [19] = tested on: S. Epidermidis; test: ASTM E2315 Time Kill Assay for Antimicrobial Agents; format: cell-based; conditions: 0.046% HOCl aqueous solution; 30 seconds; high organic load
# Description: (§1) Table 3. below represents the efficacy of 0.046% aqueous hypochlorous acid solution in the presence of high organic load. ASTM E2315 Time Kill Assay for Antimicrobial Agents. The study was performed in ATS labs in Minnesota recommended by the U.S. FDA's Tentative Final Monograph for OTC Healthcare Antiseptic Drug. […] Additional times were evaluated: 1 minute, 5 minutes, and 10 minutes, all with and without organic soil (Using 10% whole milk and 5% Fetal Bovine Serum). The trend in the efficiency is maintained under the same proportions.
# [20] = tested on: K. pneumoniae - ESBL; test: as above; format: cell-based; conditions: 0.046% HOCl aqueous solution; 30 seconds; high organic load
# Description: as §1
# [21] = tested on: P. aeruginosa; test: as above; format: cell-based; conditions: 0.046% HOCl aqueous solution; 30 seconds; high organic load
# Description: as §1
# [22] = tested on: S. marcenscens; test: as above; format: cell-based; conditions: 0.046% HOCl aqueous solution; 30 seconds; high organic load
# Description: as §1
# [23] = Sub. Chronic Toxicity. 90 days; format: in vivo
# From the text: (§2) Table 5. contains the results of several acute and sub-chronic toxicity tests.
# [24] = Acute Inhalation Toxicity; format: in vivo, Young Adult Wistar Rats
# From the text: as §2
# [25] = tested on: Human papilloma virus; test: Antimicrobial efficacy of HOCl skin cleanser (Table 1); format: cell-based; conditions: 0.01% HOCl; 30 seconds
# [26] = tested on: Herpes simplex virus; test: as above; format: cell-based; conditions: 0.01% HOCl; 30 seconds
# [27] = Teratogenicity; format: in vivo
# From the text: as §2
# [28] = tested on: S. pyogenes; test: Antimicrobial efficacy of HOCl skin cleanser (Table 1); format: cell-based; conditions: 0.01% HOCl; 30 seconds
# [29] = tested on: all microorganisms tested; test: ASTM E2315 Time Kill Assay, summary of Table 3; format: cell-based; conditions: concentration of 0.046%, 30 seconds
# Description: as §1
smiles,measurement,setting,value
"OCl [HOCl, hypochlorous acid]",% Reduction,[1],99.999%
same,Log Reduction,[1],>6.1 Log10
same,% Reduction,[2],99.99%
same,Log Reduction,[2],>5.50 Log10
same,outcome in Fournier's gangrene,[3],prevention of further spread of the disease as well as prevention of amputation and additional complications
same,% Reduction,[4],99.99%
same,Log Reduction,[4],>5.98 Log10
same,% Reduction,[5],99.999%
same,Log Reduction,[5],>5.46 Log10
same,interference with antibiotics administered orally,[6],No interference with antibiotics administered orally
same,local infection rate for all ulcers,[6],Decreased the local infection rate for all ulcers
same,closing index for venous ulcers,[6]; at 6 months,97%
same,closure of mixed ulcers,[6]; even when a surgical procedure was required,≤ 75%
same,recurrence rate,[6]; ulcers,2.7 % a year
same,% Reduction,[7],99.999%
same,Log Reduction,[7],>5.57 Log10
same,% Reduction,[8],99.999%
same,Log Reduction,[8],>6.1 Log10
same,% Reduction,[9],99.999%
same,Log Reduction,[9],>5.35 Log10
same,% Reduction,[10],>99.99%
same,Log Reduction,[10],>4.92 Log10
same,% Reduction,[11],99.999%
same,Log Reduction,[11],>5.35 Log10
same,% Reduction,[12],99.999%
same,Log Reduction,[12],>5.51 Log10
same,Log Reduction,[13],>5.87 Log10
same,% Reduction,[14],99.99%
same,Log Reduction,[14],>6.21 Log10
same,% Reduction,[15],99.999%
same,Log Reduction,[15],>5.84 Log10
same,adverse effects to the skin or mucous membranes,[16],without adverse effects to the skin or mucous membranes
same,reported cases of hypersensitivity,[17],zero
same,absorption of the compound through intact skin,[18],no evidence of absorption of the compound through intact skin
same,% Reduction,[19],99.999%
same,Log Reduction,[19],>5.60 Log10
same,% Reduction,[20],99.999%
same,Log Reduction,[20],>5.76 Log10
same,% Reduction,[21],99.999%
same,Log Reduction,[21],>5.96 Log10
same,% Reduction,[22],99.999%
same,Log Reduction,[22],>5.37 Log10
same,mortalities,"[23]; 90 days, 1000 mg/Kg Body weight, Wistar Rats","No mortalities, considered"
same,toxicity assessment,"[23]; rat, in vivo, 1000 mg/kg",non-toxic
same,survival after exposure to the test atmosphere,"[24]; Gravimetric Chamber concentration 2.07 mg/L of HOCl, Wistar Rats",Animals All animals survived
same,LC50,"[24]; both sexes, Wistar, rat, in vivo, 2.07 mg/L, male and female rats",> 2.07 µg/mL
same,% Reduction,[25],99.99%
same,Log Reduction,[25],>6.0 Log10
same,% Reduction,[26],99.99%
same,Log Reduction,[26],>5.8 Log10
same,mortalities,"[27]; Oral administration of 1000 mg/Kg/day, Females and Pregnant Wistar rats","No mortalities, considered"
same,toxicity assessment,"[27]; rat, in vivo, po, 1000 mg/kg/day",non-toxic
same,% Reduction,[28],99.99%
same,Log Reduction,[28],>6.12 Log10
same,efficacy,[29],99.999%
